Laboratory results reported in patent publication US12441726B2, “Compounds and uses thereof” (Foghorn Therapeutics Inc., priority 2020, dated 2025).

Key:
[1] = biological target: BRG-1 (Homo sapiens, UniProt P51532); test: ATPase catalytic activity assay (ADP-Glo), BRG-1; conditions: for Emax: 1 h, read-out: BRG1 Max % Inhibition, ADP-Glo, 30 nM BRG-1, 400 μM ATP
[2] = biological target: BRM (Homo sapiens, UniProt P51531); test: ATPase catalytic activity assay (ADP-Glo), BRM; conditions: 30 nM BRM, 400 μM ATP; for IC50: BRM ATPase: IC50 (uM)
BRM, sequence (P51531 whole entry): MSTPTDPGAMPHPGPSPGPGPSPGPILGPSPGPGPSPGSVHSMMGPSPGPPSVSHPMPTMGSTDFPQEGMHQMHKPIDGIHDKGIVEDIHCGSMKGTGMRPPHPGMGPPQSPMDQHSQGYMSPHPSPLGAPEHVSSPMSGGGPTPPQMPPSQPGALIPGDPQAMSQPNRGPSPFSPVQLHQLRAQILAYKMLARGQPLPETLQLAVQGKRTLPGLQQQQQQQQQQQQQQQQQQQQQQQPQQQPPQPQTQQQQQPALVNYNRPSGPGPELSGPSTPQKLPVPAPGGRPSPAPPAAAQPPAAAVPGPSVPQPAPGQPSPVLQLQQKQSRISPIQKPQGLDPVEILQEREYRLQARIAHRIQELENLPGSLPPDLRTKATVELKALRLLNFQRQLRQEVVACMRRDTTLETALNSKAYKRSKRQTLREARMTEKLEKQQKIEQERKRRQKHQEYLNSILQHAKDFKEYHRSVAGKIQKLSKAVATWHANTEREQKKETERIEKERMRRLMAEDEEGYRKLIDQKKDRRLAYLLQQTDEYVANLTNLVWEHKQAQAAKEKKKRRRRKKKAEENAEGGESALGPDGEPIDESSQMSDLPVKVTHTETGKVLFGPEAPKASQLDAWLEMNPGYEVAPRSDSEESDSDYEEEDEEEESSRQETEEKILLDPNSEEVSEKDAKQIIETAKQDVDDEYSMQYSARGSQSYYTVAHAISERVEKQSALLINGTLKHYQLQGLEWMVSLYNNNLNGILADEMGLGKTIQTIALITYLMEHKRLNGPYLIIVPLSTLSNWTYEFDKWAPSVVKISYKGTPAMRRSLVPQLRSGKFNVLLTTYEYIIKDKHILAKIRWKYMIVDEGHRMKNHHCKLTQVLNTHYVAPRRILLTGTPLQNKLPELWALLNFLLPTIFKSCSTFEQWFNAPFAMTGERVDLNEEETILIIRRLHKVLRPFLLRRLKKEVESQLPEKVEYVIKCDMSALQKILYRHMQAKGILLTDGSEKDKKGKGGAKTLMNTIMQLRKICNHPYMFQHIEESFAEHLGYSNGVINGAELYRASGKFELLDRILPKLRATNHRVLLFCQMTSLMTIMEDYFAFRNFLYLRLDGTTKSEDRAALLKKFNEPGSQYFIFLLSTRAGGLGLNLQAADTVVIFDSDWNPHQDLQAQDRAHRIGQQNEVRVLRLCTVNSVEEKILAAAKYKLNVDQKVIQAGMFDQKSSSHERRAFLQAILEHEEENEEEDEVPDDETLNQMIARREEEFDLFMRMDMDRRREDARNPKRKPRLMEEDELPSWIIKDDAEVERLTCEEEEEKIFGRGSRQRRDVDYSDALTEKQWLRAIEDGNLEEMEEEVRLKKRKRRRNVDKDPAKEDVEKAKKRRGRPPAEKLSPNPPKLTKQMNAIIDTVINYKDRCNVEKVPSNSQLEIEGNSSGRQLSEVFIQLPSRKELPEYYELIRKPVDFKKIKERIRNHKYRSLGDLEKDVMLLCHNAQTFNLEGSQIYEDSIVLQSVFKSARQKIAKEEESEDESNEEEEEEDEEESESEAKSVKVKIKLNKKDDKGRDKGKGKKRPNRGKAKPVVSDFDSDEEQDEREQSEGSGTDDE
Method: The ATPase catalytic activity of BRM or BRG-1 was measured by an in vitro biochemical assay using ADP-Glo™ (Promega, V9102). The ADP-Glo™ kinase assay is performed in two steps once the reaction is complete. The first step is to deplete any unconsumed ATP in the reaction. The second step is to convert the reaction product ADP to ATP, which will be utilized by the luciferase to generate luminesce and be detected by a luminescence reader, such as Envision.
Then following addition of 5 μL of ADP-Glo™ Reagent provided in the kit, the reaction incubates at room temperature for 40 minutes. Then 10 μL of Kinase Detection Reagent provided in the kit is added to convert ADP to ATP, and the reaction incubates at room temperature for 60 minutes. Finally, luminescence measurement is collected with a plate-reading luminometer, such as Envision.

BRG-1, sequence (P51532 whole entry): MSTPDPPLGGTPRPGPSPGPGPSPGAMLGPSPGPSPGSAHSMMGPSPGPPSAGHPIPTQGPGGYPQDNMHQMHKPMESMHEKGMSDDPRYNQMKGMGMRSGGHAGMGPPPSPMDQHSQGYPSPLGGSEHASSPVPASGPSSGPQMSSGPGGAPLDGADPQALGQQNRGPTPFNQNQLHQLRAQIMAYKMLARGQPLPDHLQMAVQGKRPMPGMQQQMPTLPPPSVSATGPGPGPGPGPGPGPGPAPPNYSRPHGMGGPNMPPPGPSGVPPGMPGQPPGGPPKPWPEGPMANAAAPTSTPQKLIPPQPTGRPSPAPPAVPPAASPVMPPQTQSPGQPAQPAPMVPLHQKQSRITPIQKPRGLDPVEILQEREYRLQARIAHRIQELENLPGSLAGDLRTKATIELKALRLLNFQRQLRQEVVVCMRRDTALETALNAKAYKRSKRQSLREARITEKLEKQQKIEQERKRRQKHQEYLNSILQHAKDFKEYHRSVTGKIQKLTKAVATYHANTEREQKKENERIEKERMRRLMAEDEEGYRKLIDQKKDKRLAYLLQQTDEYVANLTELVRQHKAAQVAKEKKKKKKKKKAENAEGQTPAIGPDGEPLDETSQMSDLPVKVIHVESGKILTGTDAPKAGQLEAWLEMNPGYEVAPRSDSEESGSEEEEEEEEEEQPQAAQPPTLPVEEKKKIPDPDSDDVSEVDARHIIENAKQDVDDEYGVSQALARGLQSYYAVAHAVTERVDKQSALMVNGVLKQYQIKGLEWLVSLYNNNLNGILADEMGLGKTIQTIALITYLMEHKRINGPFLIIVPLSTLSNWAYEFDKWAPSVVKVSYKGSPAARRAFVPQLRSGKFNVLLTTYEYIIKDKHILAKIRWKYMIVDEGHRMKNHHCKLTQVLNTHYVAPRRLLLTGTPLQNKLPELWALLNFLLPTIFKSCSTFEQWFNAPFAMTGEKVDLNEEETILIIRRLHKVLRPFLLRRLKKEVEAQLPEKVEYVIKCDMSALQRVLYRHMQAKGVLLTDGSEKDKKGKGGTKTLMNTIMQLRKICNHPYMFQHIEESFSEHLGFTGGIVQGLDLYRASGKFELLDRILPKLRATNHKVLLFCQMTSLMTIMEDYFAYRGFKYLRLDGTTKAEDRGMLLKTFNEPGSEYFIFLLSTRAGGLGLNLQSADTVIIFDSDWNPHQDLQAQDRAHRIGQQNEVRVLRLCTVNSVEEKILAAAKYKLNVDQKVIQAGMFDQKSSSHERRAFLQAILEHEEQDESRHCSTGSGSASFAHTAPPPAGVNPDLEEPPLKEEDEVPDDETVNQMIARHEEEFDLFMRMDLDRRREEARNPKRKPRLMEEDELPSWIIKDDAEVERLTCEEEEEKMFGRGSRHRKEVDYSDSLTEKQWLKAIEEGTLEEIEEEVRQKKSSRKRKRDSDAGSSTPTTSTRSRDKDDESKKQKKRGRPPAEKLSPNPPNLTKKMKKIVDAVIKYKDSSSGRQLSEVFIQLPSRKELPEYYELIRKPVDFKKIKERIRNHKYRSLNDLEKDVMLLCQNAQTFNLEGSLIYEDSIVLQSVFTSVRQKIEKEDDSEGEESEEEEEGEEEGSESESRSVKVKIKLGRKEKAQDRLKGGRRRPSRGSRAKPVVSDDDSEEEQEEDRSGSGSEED

Row | Structure (SMILES) | IC50 [1] [nM] | Emax [1] [%] | BRM Max % Inhibition [2] [%] | IC50 [2] [µM]
1 | C[C@@]1(C#N)COCc2ccc(C(=O)NCc3cc(C#Cc4ccccc4)ccn3)cc21 [Compound 1] | > 1000 | 56 | 90 | 0.1 to 0.5
2 | COc1cccc(C#Cc2ccnc(CNC(=O)c3ccc4c(c3)[C@](C)(C#N)COC4)c2)c1 [Compound 2] | > 1000 | 65 | 96 | 0.1 to 0.5
3 | COC(=O)c1cccc(C#Cc2ccnc(CNC(=O)c3ccc4c(c3)[C@](C)(C#N)COC4)c2)c1 [Compound 3] | > 1000 | 78 | 99 | < 0.1
4 | C[C@@]1(C#N)COCc2ccc(C(=O)NCc3cc(/C=C/c4ccccc4)ccn3)cc21 [Compound 4] | > 1000 | 74 | 97 | 0.1 to 0.5
5 | COC(=O)N1CCCC(C#Cc2ccnc(CNC(=O)c3ccc4c(c3)[C@](C)(C#N)COC4)c2)C1 (stereo partly drawn) [Compound 5] | > 1000 | 12 | 64 | > 1
6 | C[C@@]1(C#N)COCc2ccc(C(=O)NCc3cc(OCc4ccccc4)ccn3)cc21 [Compound 6] | > 1000 | 44 | 95 | 0.1 to 0.5
7 | C[C@@]1(C#N)COCc2ccc(C(=O)NCc3cc([C@H]4C[C@@H]4c4ccccc4)ccn3)cc21 [Compound 7] | > 1000 | 12 | 81 | > 1
8 | C[C@@]1(C#N)COCc2ccc(C(=O)NCc3cc([C@@H]4C[C@H]4c4ccccc4)ccn3)cc21 [Compound 8] | > 1000 | 9 | 73 | > 1
9 | C[C@@]1(C#N)COCc2ccc(C(=O)NCc3cc(/C(F)=C(\F)c4ccccc4)ccn3)cc21 [Compound 9] | > 1000 | 56 | 95 | 0.1 to 0.5
10 | C[C@@]1(C#N)COCc2ccc(C(=O)NCc3cc(N4CC5(CN(c6ccccc6)C5)C4)ccn3)cc21 [Compound 10] | > 1000 | 30 | 71 | > 1
11 | C[C@@]1(C#N)COCc2ccc(C(=O)NCc3cc(N4CCC5(C4)CN(c4ccccc4)C5)ccn3)cc21 [Compound 11] | > 1000 | 26 | 82 | > 1
12 | C[C@@]1(C#N)COCc2ccc(C(=O)NCc3cc(N4CC5(CCN(c6ccccc6)C5)C4)ccn3)cc21 [Compound 12] | > 1000 | 22 | 79 | > 1
13 | O=C(NCc1cc(C#Cc2ccccc2)ccn1)c1cccc(C2(C(F)F)COC2)c1 [Compound 13] | > 1000 | 44 | 84 | > 1
14 | C[C@@]1(F)COCc2ccc(C(=O)NCc3cc(C#Cc4ccccc4)ccn3)cc21 [Compound 14] | > 1000 | 64 | 94 | 0.5 to 1
15 | Cc1cnc(CNC(=O)c2ccc3c(c2)[C@](C)(C#N)COC3)cc1C#Cc1ccccc1 [Compound 15] | > 1000 | 64 | 94 | 0.5 to 1
16 | C[C@@]1(C#N)COCc2ccc(C(=O)NCc3nccc(C#Cc4ccccc4)c3F)cc21 [Compound 16] | > 1000 | 51 | 94 | 0.1 to 0.5
17 | C[C@@]1(C#N)COCc2ccc(C(=O)NCc3cc(C#Cc4cccc(C(F)F)c4)ccn3)cc21 [Compound 17] | > 1000 | 58 | 94 | 0.1 to 0.5

Row | Structure (SMILES) | IC50 [1] [nM] | Emax [1] [%] | BRM Max % Inhibition [2] [%] | IC50 [2] [µM]
18 | C[C@@]1(C#N)COCc2ccc(C(=O)NCc3cc([C@H]4C[C@H](c5ccccc5)C4)ccn3)cc21 [Compound 18] | > 1000 | 87 | 93 | < 0.1
19 | C[C@@]1(C#N)COCc2ccc(C(=O)NCc3cc([C@H]4C[C@@H](c5ccccc5)C4)ccn3)cc21 [Compound 19] | 500 to 1000 | 89 | 97 | 0.1 to 0.5
20 | C[C@@]1(C#N)COCc2ccc(C(=O)NCc3cc(C#Cc4ccccc4)c(F)cn3)cc21 [Compound 20] | > 1000 | 41 | 83 | 0.5 to 1
21 | COC(=O)N1CCC(C#Cc2ccnc(CNC(=O)c3ccc4c(c3)[C@](C)(C#N)COC4)c2)CC1 [Compound 21] | > 1000 | 31 | 78 | > 1
22 | COC(=O)N1CCC(C#Cc2ccnc(CNC(=O)c3ccc4c(c3)[C@](C)(C#N)COC4)c2)C1 (stereo partly drawn) [Compound 22] | > 1000 | 31 | 70 | > 1
23 | COC(=O)c1cccc(C#Cc2ccnc(CNC(=O)c3ccc4c(c3)[C@](C)(O)COC4)c2)c1 [Compound 23] | > 1000 | 35 | 85 | 0.5 to 1
24 | COC(=O)c1cccc(C#Cc2ccnc(CNC(=O)c3ccc4c(c3)[C@](C)(C#N)CCO4)c2)c1 [Compound 24] | > 1000 | 65 | 94 | 0.1 to 0.5
25 | C[C@@]1(C#N)COCc2ccc(C(=O)NCc3cc(CCc4ccccc4)ccn3)cc21 [Compound 25] | > 1000 | 68 | 94 | 0.1 to 0.5
26 | COC(=O)c1cccc(/C=C/c2ccnc(CNC(=O)c3ccc4c(c3)[C@](C)(C#N)COC4)c2)c1 [Compound 26] | 100 to 500 | 90 | 100 | < 0.1
27 | C[C@@]1(C#N)COCc2ccc(C(=O)NCc3cc(/C(F)=C/c4ccccc4)ccn3)cc21 [Compound 27] | > 1000 | 62 | 97 | 0.1 to 0.5
28 | C[C@@]1(C#N)COCc2ccc(C(=O)NCc3cc(N4CCc5ccccc5C4)ccn3)cc21 [Compound 28] | 500 to 1000 | 86 | 98 | < 0.1
29 | C[C@@]1(C#N)COCc2ccc(C(=O)NCc3cc(/C=C(\F)c4ccccc4)ccn3)cc21 [Compound 29] | > 1000 | 69 | 98 | 0.1 to 0.5
30 | C[C@@]1(C#N)COCc2ccc(C(=O)NCc3cc(C4CN(c5ccccc5)C4)ccn3)cc21 [Compound 30] | > 1000 | 35 | 92 | 0.1 to 0.5
31 | C[C@@]1(C#N)COCc2ccc(C(=O)NCc3cc(N4Cc5ccccc5C4)ccn3)cc21 [Compound 31] | > 1000 | 73 | 96 | 0.1 to 0.5
32 | C[C@@]1(C#N)COCc2ccc(C(=O)NCc3cc(N4CC(c5ccccc5)C4)ccn3)cc21 [Compound 32] | > 1000 | 55 | 89 | > 1
33 | C[C@@]1(C#N)COCc2ccc(C(=O)NCc3nccc(/C=C/c4ccccc4)c3F)cc21 [Compound 33] | > 1000 | 78 | 98 | 0.1 to 0.5
